According to PubChem BioAssay AID179 (DTP/NCI, 2004):
pEC50, pIC50: −log10 of the molar value. “And” between values parts separate entries of the source, which are not always exact repeats. Equal values may be shown once. The source made the active and inactive calls.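 Rule for the calls: active = compounds giving half or more protection of infected cells from virus-caused growth loss, again on retest; inactive = the rest.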

System: CEM cells HIV-1 protection, formazan growth assay
Test: NCI AIDS Antiviral Assay
Conditions: for pIC50: measured here: growth of uninfected CEM cells
Method in brief: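 Human CEM cells, uninfected and HIV-1-infected, received five drug concentrations, and growth was read by soluble formazan assay. Compounds giving at least 50% protection were retested; reproducible 100% protection defined confirmed active.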

SMILES	pEC50	pIC50	outcome
COc1cc(C2c3cc(OC)c(OC)c(O)c3C(=O)C3CCC(=O)N32)cc(OC)c1OC (stereo not given)	< 4.00	4.83	
NS(=O)(=O)c1cc2c(cc1Cl)NC(C(=O)NNC(=O)c1ccncc1)=NS2(=O)=O	< 4.11	< 4.11	
CC#CC(O)(C(=O)OC1CCCN(C)C1)C1=CC=CCC1 (stereo not given)	< 3.70	< 3.70	
OCCCNc1ccnc2cc(Cl)ccc12	< 3.04	4.09	
O=C1C(=O)c2ccccc2C(O)=C1CCCC1CCC2CCCCC2C1 (stereo not given)	< 3.70	5.08	
O=C(NC1C2CC3CC(C2)CC1C3)c1cc(/C=C/c2ccccc2)[nH]c(=S)n1 (stereo not given)	< 4.46	< 4.46	
C#CCCOC(=O)CC1=C(C)/C(=C/c2ccc(S(C)=O)cc2)c2ccc(F)cc21 (stereo not given)	< 3.70	4.83	
CN(C)CCC=C1c2ccccc2CCc2ccccc21	< 3.70	4.46	
COc1cccc(-c2nc(N)c(C#N)c3c2CCS(=O)(=O)c2ccc(C)cc2-3)c1	< 3.70	5.39	
COc1ccc(-c2coc3cc(O)cc(O)c3c2=O)cc1	< 3.70	4.90	
CCOC(=O)C1C/C(C)=C(/C)SCCCS1 (stereo not given)	< 3.70	4.34	
COc1ccc(C[C@H](N)C(=O)N2C[C@@H](CO)C[C@@H](n3cnc4c(N(C)C)ncnc43)C2)cc1	< 3.56	< 3.56	
Cn1c(=O)cc(NCCc2ccccc2)[nH]c1=O	< 3.70	4.76	
O=[N+]([O-])c1cccc(S(=O)(=O)N/N=C/c2cc(I)cc([N+](=O)[O-])c2O)c1	< 3.44	4.20	
COc1cc(-c2oc3c(OC)c(OC)cc(O)c3c(=O)c2OC)ccc1O	< 4.00	4.90 and 5.45	
C/C(=N\NC(=O)c1ccccc1O)c1c(O)cc(C)oc1=O	< 4.07	4.15	
Nc1ncc(Sc2ccccc2C(=O)O)s1	< 3.70	< 3.70	
Clc1cccc(NC(c2ccccc2)=[N+]2CCCCC2)c1	< 3.70	4.51	
COc1ccc(/C=C/c2ccc3ccccc3n2)c(OC)c1	< 3.70	4.91	
O=C1C=CC(=O)c2c1c1c(c3c2C2c4ccccc4C3c3ccccc32)C2c3ccccc3C1c1ccccc12	< 4.99	< 4.99	
N#C/C(=C\c1ccc(Br)cc1)C(=O)c1ccccc1	< 4.02	4.17	
O=C1NC(=O)C(CC(C(=O)C(=O)Nc2ccccc2Cl)C(=O)c2ccc3ccccc3c2)C(=O)N1 (stereo not given)	< 4.42	< 4.42	

SMILES	pEC50	pIC50	outcome
CC1C(=O)N(C)C2(CO)C(=O)O[C@H](C)C12O (stereo not given in full)			inactive
CCOC(=O)C(NC(=O)c1ccccc1)(N1CCOCC1)C(F)(F)F (stereo not given)	< 3.70	< 3.70	
COCCOCN(C(=O)C1=CCC2(CC1)OCCO2)c1ccccc1I	< 3.70	< 3.70	
COC(=O)/C=C/c1cc(OC)c(OC)c(OC)c1	< 3.60	3.77	
O=c1cn[nH]c2cccc(Cl)c12	< 3.93	< 3.93	
COc1ccc(C(=O)O/N=C2/CCC/C2=C\c2ccccc2)cc1			inactive
O=C1NC(=O)/C(=C/c2ccc(S(=O)(=O)N/N=C/c3ccccc3)cc2)N1	< 3.70	< 3.70	
C[C@@]12C[C@@H](c3ccccc3O1)N1Cc3ccccc3CSC1=N2	< 3.70	4.31	
CCC(C=O)P1(=O)OC(C)(C)CN1C(C)(C)C (stereo not given)	< 3.70	4.19	
CC(C)C(N=C1CC2CCC1(C(=O)Nc1ccccc1O)C2(C)C)c1ccccc1 (stereo not given)	4.70	4.49	
S=C1N=C(Cl)/C(=C\c2ccccc2)N1	< 3.70	< 3.70	
O=C1NC(=O)C(COCc2ccccc2)C2=C1SCCC2 (stereo not given)	< 3.70	< 3.70	
O=C(CCc1ccc(O)cc1)c1c(O)cc(O)cc1OC1OC(CO)C(O)C(O)C1O (stereo not given)	< 3.70	< 3.70	
O=c1nc2ccc3[nH]c(O)c4ccc1c2c34	< 3.70	3.75	
CC(=O)c1c2c(cc3c1CC1(Cc4ccccc4C1=O)C3)CCC2 (stereo not given)	< 3.70	4.75	
O=c1oc2c3ccc4ccccc4c3n(CCCN3CCCCC3)c2c2ccccc12	< 4.79	5.11	
N#CCCN(CCNc1ccccc1)C(=O)Nc1ccc(NC(=O)N(CCC#N)CCNc2ccccc2)cc1	< 3.70	< 3.70	
COc1cc(C(=O)C/C(CCC(=O)Nc2ccccc2[N+](=O)[O-])=N\NC(N)=O)ccc1O	< 3.25	3.28	
Cc1ccc(Oc2cc(C)ccc2P(=O)(O)O)cc1	< 3.70	3.86	
CCOC(=O)c1ccc(-n2cnc(-c3ccc([N+](=O)[O-])cc3)c2)cc1	4.02	< 3.70	
CC1(C)NC(=O)N(C(C)(C)C(=O)O)C1=O	< 3.70	< 3.70	
O=C1/C(=C/c2ccc(Cl)cc2)Sc2scc(-c3cccc([N+](=O)[O-])c3)[n+]21	< 3.70	5.86	

SMILES	pEC50	pIC50	outcome
N#CCCN(CCC#N)c1ccc(/C=C(\NC(=O)c2cc([N+](=O)[O-])ccc2Cl)C(=O)Nc2ccccc2)cc1	< 4.88	< 4.88	
COC(=O)[C@]1(Cc2ccc3ccccc3c2)CCCCCCN1C(=O)c1ccccc1			inactive
C=CCCCC12CCCc3cccc(c31)NC2=S (stereo not given)	< 3.70	4.85	
CC[S+](C)c1ccc(-c2c3nc(c(-c4ccc([S+](C)CC)cc4)c4ccc([nH]4)c(-c4ccc([S+](C)CC)cc4)c4nc(c(-c5ccc([S+](C)CC)cc5)c5ccc2[nH]5)C=C4)C=C3)cc1 (stereo not given)	5.32	4.88	
O=C1OCC=C1COC1OC(CO)C(O)C(O)C1O (stereo not given)	< 3.70	4.11	
O=[N+]([O-])c1ccc(Cl)cc1N/N=C/c1ccnc2ccccc12			inactive
N#CCCN(CCC#N)c1ccc(/C=C2\SC(=S)NC2=O)cc1	< 3.70	< 3.70	
NC(CSS(=O)(=O)O)=NCC12CC3CC(CC(C3)C1)C2	< 3.70	4.49	
CC(C)C(=O)Oc1cc2c(=O)oc3c(OC(=O)C(C)C)c(OC(=O)C(C)C)cc4c(=O)oc(c1OC(=O)C(C)C)c2c34	< 4.30	< 4.30	
O=C(Nc1ccc(Cl)cc1)Nc1cccc2nsnc12	< 4.49	4.69	
CP1(=S)CC[C@H]2C3=C(CC[C@@H]21)CC(=O)CC3 (stereo not given in full)			inactive
NCCCCCNOCCCN	< 3.70	3.88	
COc1cc(C)c(O)c(C[P+](c2ccccc2)(c2ccccc2)c2ccccc2)c1	< 3.70	4.93	
O=[N+]([O-])c1ccc(S(=O)(=O)N=Ic2ccccc2)cc1	< 3.70	< 3.70	
c1cc2cc(Cc3ccc4[nH]ccc4c3)ccc2[nH]1	< 3.70	4.51	
COc1ccc(C(=O)Oc2c(C#N)sc3c2c(=O)n(-c2ccccc2)c(=S)n3-c2ccccc2)cc1	< 3.70	5.29	
CCOC(=O)c1cncc(C#N)c1	< 3.70	3.98	
COc1ccc(N2C(=O)C(C#N)=C(SC)C(C#N)C2=O)cc1 (stereo not given)	< 3.70	3.76	
O=Nc1c(Br)cc(Br)c2ccc3c(Br)cc(Br)c(N=O)c3c12	< 4.30	< 4.30	
CN1C2CC(=O)CC1[C@H](O)[C@@H]2O	< 3.70	< 3.70	
O=C1C2=C(C(c3ccccc3)=C1c1ccccc1)c1ccccc1C1(c3ccccc3)C2=C(O)C(c2ccccc2)=C1c1ccccc1 (stereo not given)			inactive
COc1cccc(/C=C2\S/C(=N/Nc3nc(C)c(C)s3)NC2=O)c1O	< 3.70	3.89	

SMILES	pEC50	pIC50	outcome
O=[N+]([O-])c1ccc(-c2csc(N=Nc3c(O)[nH]c4ccccc34)n2)cc1	3.85	< 3.70	
CC12C/C(=C\c3ccccc3)C(=O)C3C1CCCC32			inactive
O=C1OCC2=C1C(c1ccc3c(c1)OCO3)c1cc3c(cc1O2)OCO3 (stereo not given)	< 3.70	5.78	
COc1cc(N=Nc2ccccc2)cc(/C=N\[N-]C(N)=S)c1[O-].COc1cc(N=Nc2ccccc2)cc(/C=N\[N-]C(N)=S)c1[O-].[Fe+4]	< 4.58	< 4.58	
Cc1c(NC(=S)NN)c(=O)n(-c2ccccc2)n1C	< 3.70	< 3.70	
Cc1ccc(N2C(=O)/C(=c3\s/c(=C(/N)O)c(=N)n3-c3ccccc3)SC2=S)cc1	< 5.34	< 5.34	
N=C(/C=C/c1ccc(-c2cn3cc(/C=C/C(=N)N4CCOCC4)ccc3n2)cc1)N1CCOCC1	3.79	3.73	
ClC1=C(Cc2ccccc2)Cc2ccc3c(c21)CCC3	< 3.70	< 3.70	
CCn1cc(C(=O)O)c(=O)c2cc3c(cc21)S(=O)(=O)CC3	< 3.70	< 3.70	
CN1C(=O)[C@@H]2N(CSC2(C)C)C1=S	< 3.70	< 3.70	
O=C(Nc1ccc(Cl)c(Cl)c1)n1ncc2ccc([N+](=O)[O-])cc21	< 3.70	3.77	
C/C(CC(=O)Nc1cccc([N+](=O)[O-])c1)=N\NC(=O)CC#N	< 3.08	3.35	
COC1=CC(=O)C2C=C3C(CO)=CCC(O)C3(C)CC2C1=O (stereo not given)	< 3.70	5.42	
COc1ccc(-c2n[nH]c3nc4ccccc4n3c2=O)cc1	< 3.70	< 3.70	
O=CC1=C(C(=O)OC(c2ccccc2)c2ccccc2)N2C(=O)[C@@H](NC(=O)Cc3cccs3)[C@H]2SC1	< 3.70	3.91	
Cc1cc(-c2c(Br)cc(C(=O)O)n2C)on1	< 3.70	< 3.70	
O=C1CC2COc3ccc(O)cc3C2=NN1c1ccccc1 (stereo not given)	< 3.49	3.96	
OCCNCCNc1c2ccccc2nc2cc(Cl)ccc12			inactive
[N-]=[N+]=Nc1nc2ccccc2c(N=[N+]=[N-])c1Cl	< 3.70	3.88	
CC(C)CC(NC(=O)c1cccc(O)c1O)C(=O)NCc1cc(CNC(=O)C(CC(C)C)NC(=O)c2cccc(O)c2O)cc(CNC(=O)C(CC(C)C)NC(=O)c2cccc(O)c2O)c1 (stereo not given)			inactive
NC(=O)CSc1nc2ccccc2c(=O)n1N	< 3.70	< 3.70	
